# Measurements taken from US11390613B2, “Azole analogues and methods of use thereof” (UNIVERSITY OF CONNECTICUT, priority 2017, dated 2022).
# Read-outs that look alike come from different tables or passages of the source.
# What was measured:
# [1] = tested on: primary murine Hh-dependent MB cell line (MERP); assay: Antiproliferation in primary Hh-dependent MB cells (MERP); format: cell-based; details: Mus musculus
# Method: Secondary In Vitro Evaluation. Based on their activity in ASZ cells, several compounds were evaluated further in a primary murine Hh-dependent MB cell line (MERP).
# (§1) General Information for Cell Culture Studies Protocols for general cell culture, qPCR, and Hh inhibition ASZ cells are as previously described.
# (§2) General Information for Cell Culture Studies. Protocols for general cell culture, qPCR, and Hh inhibition ASZ cells are as previously described.
# [2] = Metabolic half-life and clearance (HLM); format: in vitro ADME
# CYP3A4 = CYP3A4 (Homo sapiens, UniProt P08684); assay: CYP3A4 inhibition
# Method: Preliminary In Vitro Pharmacokinetic Assays.
# Additionally, CYP3A4 inhibition and P-glycoprotein (P-gp) efflux of each compound were evaluated.
# [3] = tested on: Gli1 mRNA levels in the murine BCC cell line ASZ-001 (Hh pathway); assay: Hh pathway inhibition: endogenous Gli1 mRNA (qRT-PCR) in ASZ-001 cells; format: cell-based
# Method: Initial Hh inhibition studies.
# as §1, §2
# Gene Expression Assay Protocol (ASZ-001): Cells are seeded (10,000 cells per well; 100 μL total volume per well) in a 96-well tissue culture plate. After 24 h of incubation (37° C., 5% CO2), growth media was removed and replaced with low FBS media. Cells were incubated for an additional 24 h. After this time, DMSO (vehicle control) and liposomes (Aqueous Solution) were added to the wells. […]
# Rt-PCR Protocol: Following treatment and incubation periods, both RNA extraction and cDNA synthesis were performed using a TaqMan Cells-to-CT (fast) kit. cDNA synthesis utilized a BioRad MyCycler and was programmed according to the manufacturer's instructions. Quantitative RT-PCR was performed on an ABI 7500 system and made use of the following TaqMan Gene Expression Probes: mouse ActB (Mm00607939_s1) and mouse Gli1 (Mm00494654_m1). Relative gene expression levels were computed via ΔΔCT method using GraphPad Prism. Corresponding IC50 values were calculated as mean±SEM for at least three separate experiments performed in triplicate.
# [4] = Mus musculus, ASZ001, Table P2, ASZ cells, Gli1 mRNA, 48 h incubation, read-out: IC50
# Chain of CYP3A4 (P08684 whole entry): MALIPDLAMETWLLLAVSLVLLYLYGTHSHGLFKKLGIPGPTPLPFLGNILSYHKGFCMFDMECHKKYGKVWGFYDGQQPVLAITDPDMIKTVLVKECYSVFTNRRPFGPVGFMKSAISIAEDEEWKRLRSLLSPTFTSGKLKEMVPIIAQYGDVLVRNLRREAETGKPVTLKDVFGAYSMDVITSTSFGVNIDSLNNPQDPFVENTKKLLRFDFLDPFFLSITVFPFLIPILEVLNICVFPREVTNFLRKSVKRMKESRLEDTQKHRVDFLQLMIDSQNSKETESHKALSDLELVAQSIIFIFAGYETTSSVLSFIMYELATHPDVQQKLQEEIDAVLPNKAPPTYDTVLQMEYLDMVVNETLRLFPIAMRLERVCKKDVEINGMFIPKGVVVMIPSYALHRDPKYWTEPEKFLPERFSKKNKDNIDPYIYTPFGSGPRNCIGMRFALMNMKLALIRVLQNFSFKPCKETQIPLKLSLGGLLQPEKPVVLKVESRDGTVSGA
compound,measurement,setting,value
"C[C@@]1(c2ccc(Cl)cc2Cl)OC[C@@H](COc2ccc(N3CCN(c4ccc(NC(=O)c5cccc(O)c5)cc4)CC3)cc2)O1 [Compound 27, N-(4-(4-(4-(((2R,4R)-2-(2,4-dichlorophenyl)-2-methyl-1,3-dioxolan-4-yl)methoxy)phenyl)piperazin-1-yl)phenyl)-3-hydroxybenzamide]",IC50,[1]; Table 6,2800 ± 1500 nM
same,"T1/2 (HLM, min)",[2],>231 min
same,Solubility,Solubility,1.4 nM
"CC(=O)c1cccc(C(=O)Nc2ccc(N3CCN(c4ccc(OC[C@@H]5CO[C@](C)(c6ccc(Cl)cc6Cl)O5)cc4)CC3)cc2)c1 [Compound 34, 3-acetyl-N-(4-(4-(4-(((2S,4R)-2-(2,4-dichlorophenyl)-2-methyl-1,3-dioxolan-4-yl)methoxy)phenyl)piperazin-1-yl)phenyl)benzamide]",GI50,[1]; Table 7,1000 ± 300 nM
same,"T1/2 (HLM, min)",[2],11.4 ± 0.06 min
same,Solubility,Solubility,1.4 nM
same,IC50,CYP3A4,> 30000 nM
"C[C@]1(c2ccc(F)cc2F)C[C@H](COc2ccc(N3CCN(c4ccc([N+](=O)[O-])cc4)CC3)cc2)CO1 [Compound P19, 1-(4-(((3R,5R)-5-(2,4-difluorophenyl)-5-methyltetrahydrofuran-3-yl)methoxy)phenyl)-4-(4-nitrophenyl)piperazine]",IC50,[3]; [4],740 ± 150 nM
"C[C@]1(c2ccc(F)cc2F)C[C@H](COc2ccc(N3CCN(c4ccc(N)cc4)CC3)cc2)CO1 [Compound P20, 4-(4-(4-(((3R,5R)-5-(2,4-difluorophenyl)-5-methyltetrahydrofuran-3-yl)methoxy)phenyl)piperazin-1-yl)aniline]",IC50,[3]; [4],330 ± 120 nM
"C[C@]1(c2ccc(F)cc2F)C[C@H](COc2ccc(N3CCN(c4ccc(NC(=O)Oc5ccccc5)cc4)CC3)cc2)CO1 [Compound P21, phenyl (4-(4-(4-(((3R,5R)-5-(2,4-difluorophenyl)-5-methyltetrahydrofuran-3-yl)methoxy)phenyl)piperazin-1-yl)phenyl)carbamate]",IC50,"[3]; Mus musculus, ASZ001, 48 h",> 10000 nM
"C[C@]1(c2ccc(F)cc2F)C[C@H](COc2ccc(N3CCN(c4ccc(NC(=O)NN)cc4)CC3)cc2)CO1 [Compound P22, N-(4-(4-(4-(((3R,5R)-5-(2,4-difluorophenyl)-5-methyltetrahydrofuran-3-yl)methoxy)phenyl)piperazin-1-yl)phenyl)hydrazinecarboxamide]",IC50,[3]; [4],220 ± 80 nM
"C[C@]1(c2ccc(F)cc2F)C[C@H](COc2ccc(N3CCN(c4ccc(-n5cn[nH]c5=O)cc4)CC3)cc2)CO1 [Compound P23, 4-(4-(4-(4-(((3R,5R)-5-(2,4-difluorophenyl)-5-methyltetrahydrofuran-3-yl)methoxy)phenyl)piperazin-1-yl)phenyl)-2,4-dihydro-3H-1,2,4-triazol-3-one]",IC50,[3]; [4],190 ± 100 nM
"CC(=O)c1cccc(C(=O)Nc2ccc(N3CCN(c4ccc(OC[C@@H]5CO[C@@](C)(c6ccc(F)cc6F)C5)cc4)CC3)cc2)c1 [Compound P24, 3-acetyl-N-(4-(4-(4-(((3R,5R)-5-(2,4-difluorophenyl)-5-methyltetrahydrofuran-3-yl)methoxy)phenyl)piperazin-1-yl)phenyl)benzamide]",IC50,[3]; [4],24 ± 9 nM
"C[C@]1(c2ccc(F)cc2F)C[C@H](COc2ccc(N3CCN(c4ccc(NC(=O)c5cccc(O)c5)cc4)CC3)cc2)CO1 [Compound P25, N-(4-(4-(4-(((3R,5R)-5-(2,4-difluorophenyl)-5-methyltetrahydrofuran-3-yl)methoxy)phenyl)piperazin-1-yl)phenyl)-3-hydroxybenzamide]",IC50,[3]; [4],190 ± 30 nM
"C[C@]1(c2ccc(F)cc2F)C[C@H](COc2ccc(N3CCN(c4ccc(NC(=O)c5cccnc5)cc4)CC3)cc2)CO1 [Compound P26, N-(4-(4-(4-(((3R,5R)-5-(2,4-difluorophenyl)-5-methyltetrahydrofuran-3-yl)methoxy)phenyl)piperazin-1-yl)phenyl)nicotinamide]",IC50,"[3]; Table P2, ASZ cells, Gli1 mRNA, 48 h incubation, read-out: IC50",38 nM
